Test results taken from patent US20240366785A1 (priority 2021, published 2024).

Test system: human patients having XLMTM
Assay: Ursodiol treatment of hyperbilirubinemia after resamirigene bilparvovec
Assay type: in vivo
Experimental: A subject (115-9001) experienced an SAE of Grade 3 cholestasis which required hospitalization. The subject's medical history included cholestasis and elevated total bilirubin. Approximately 5 weeks after dosing, the subject had elevated direct bilirubin levels (Grade 2) which was treated with ursodiol and resolved 6 weeks later. Approximately 11 weeks after dosing, the subject experienced cholestasis and decision was made to hospitalize the subject 9 days after cholestasis was reported. The cholestasis resolved after approximately 12 weeks. Cholestasis was considered by the Investigator to be possibly related to resamirigene bilparvovec infusion. The subject's baseline history of cholestasis supports underlying disease as causal factor.
Cholestasis and hyperbilirubinemia are considered identified risks associated with resamirigene bilparvovec. Therefore, for subjects receiving resamirigene bilparvovec, ursodiol is recommended as prophylaxis for possible cholestatic syndromes. Ursodiol (ursodeoxycholic acid) is an enterally administered hydrophilic bile acid that can decrease the hydrophobic bile acid content within bile. […]

## C[C@H](CCC(=O)O)[C@H]1CC[C@H]2[C@@H]3[C@@H](O)C[C@@H]4C[C@H](O)CC[C@]4(C)[C@H]3CC[C@]12C [ursodiol, Ursodeoxycholic acid]
In some cases
  Transient hyperbilirubinemia following resamirigene bilparvovec: response to ursodiol: responsive
Subject 115-9001, after resamirigene bilparvovec 3.0×10^14 vg/kg
  Elevated direct bilirubin (Grade 2) treated with ursodiol: time to resolution: 6 weeks
